Data set [1] relates to mice. Nature of the data set: Mouse tail bleeding time test. To be noted: cangrelor 30 μg/kg; for effect on mouse tail bleeding time: Fig. 5, M3mP6 HLPN 5 or 10 μmol/kg, high dose aspirin 36 mg/kg i.p., clopidogrel 4 mg/kg, ticagrelor 3 mg/kg.
The conditions of data set [2]: lipid micellar formulation; cited from earlier work.
Data set [3] relates to C57BL/6 mice. The data set is described as follows: FeCl3-induced mouse carotid artery thrombosis model. To be noted: for effect on occlusive thrombus formation: 7.5% FeCl3. It is filed as in vivo.
The conditions of data set [4]: no reference given; cited from earlier work.
Data set [5] relates to mice. The data set is described as follows: Laser-induced cremaster arteriolar thrombosis model in mice. Format: in vivo, mouse. Particulars: pre-injected intravenously; M3mP6 HLPN 10 μmol/kg, cangrelor 30 μg/kg; 27 injury sites each.

Where “and” joins values, the source holds several entries; their conditions need not be identical. Identical values can stand only once. Where no end group is shown, it is not given here. The star is where a group is joined. Myristoyl = CCCCCCCCCCCCCC(=O)*

The source of these data is PMC8061427 (Science translational medicine, 2020).

On to `CCCSc1nc(N[C@@H]2C[C@H]2c2ccc(F)c(F)c2)c2nnn([C@@H]3C[C@H](OCCO)[C@@H](O)[C@H]3O)c2n1` [ticagrelor], for which the “effect on mouse tail bleeding time” value in data set [1] is recorded as “increased tail bleeding time”.

As for Myristoyl-FEEERA [mP6], the “peptide concentration achieved in lipid micellar suspension” value in data set [2] is 1 mM and < 1 mM.

`COC(=O)[C@H](c1ccccc1Cl)N1CCc2sccc2C1` [clopidogrel]: the “effect on occlusive thrombus formation” value in data set [3] (Fig. 4C, M3mP6 HLPN 10 μmol/kg, clopidogrel 4 mg/kg oral 2 hours before, ticagrelor 3 mg/kg oral 2 hours before) is “delayed occlusive thrombus formation following FeCl3-induced injury but was less effective than M3mP6 HLPN”.

As to `CC(=O)Oc1ccccc1C(=O)O` [aspirin], the “effect on mouse tail bleeding time” value in data set [1] is given as “increased tail bleeding time”. For the same compound, in data set [3] (Fig. 4B, M3mP6 HLPN 5 μmol/kg, aspirin 36 mg/kg i.p. 1 hour before), the “effect on occlusive thrombus formation” value is recorded as “no obvious effect”.

Take `CSCCNc1nc(SCCC(F)(F)F)nc2c1ncn2[C@@H]1O[C@H](COP(=O)(O)OP(=O)(O)C(Cl)(Cl)P(=O)(O)O)[C@@H](O)[C@H]1O` [cangrelor]: the plasma half-life in data set [4] is 3 to 6 min. Further, the “effect on mouse tail bleeding time” value in data set [1] is on record as “increased tail bleeding time”. Also, in data set [1] (post-injury injection, M3mP6 HLPN 10 μmol/kg), the tail bleeding time entry is reported as “prolonged tail bleeding time”. The “overall effect on occlusive thrombosis” value in data set [3] (Fig. 4E, cangrelor 30 μg/kg retro-orbital, M3mP6 HLPN 10 μmol/kg) was “moderately better than M3mP6 HLPN”. The “effect on platelet thrombus formation” value in data set [5] was “potently inhibiting platelet thrombus formation”.
